Assay results reported in PubChem BioAssay AID1053132 (The Scripps Research Institute Molecular Screening Center, 2014).
Activity calls are given as the source filed them. The rule behind the calls is not given here.

These compounds were tested against methionyl-tRNA synthetase (Trypanosoma brucei brucei) (assay: T. brucei MetRS inhibitors, late-stage follow-up, biochemical, luminescence, dose response, round 3 (AID 1053132)). Details: recombinant T. brucei MetRS, luminescence (ATP consumption).

IC50 | Structure (SMILES)
168 nM | CCN(CC)C(=O)C(=O)c1cn(CC(=O)Nc2cc(Oc3ccc(OC)cc3)cc(C(F)(F)F)c2)c2ccccc12
188 nM | CCN(CC)C(=O)C(=O)c1cn(CC(=O)Nc2cc(Oc3ccc(F)cc3)cc(C(F)(F)F)c2)c2ccccc12
161 nM | CCN(CC)C(=O)C(=O)c1cn(CC(=O)Nc2cc(Oc3ccccc3OC)cc(C(F)(F)F)c2)c2ccccc12
58.1 nM | CCN(CC)C(=O)C(=O)c1cn(CC(=O)Nc2cc(Oc3ccccc3)cc(C(F)(F)F)c2)c2ccccc12

Further lines, the compound ahead of its results:

Structure (SMILES) | IC50
CCN(CC)C(=O)C(=O)c1cn(CC(=O)Nc2cc(Oc3ccccc3F)cc(C(F)(F)F)c2)c2ccccc12 | 133 nM
Nc1c(Cl)ncnc1Nc1ccc(C(=O)O)cc1 | 2540 nM
CCN(CC)C(=O)C(=O)c1cn(CCNc2cc(Oc3ccccc3)cc(C(F)(F)F)c2)c2ccccc12 | inactive
CCN(CC)C(=O)Cc1cn(CC(=O)Nc2cccc(C(F)(F)F)c2)c2ccccc12 | > 119000 nM (inactive)
O=C(Cc1ccc(Nc2nc3ccc(Br)cc3[nH]2)cc1)NCCc1cccs1 | inactive
CCN(CC)C(=O)C(=O)c1cn(CCNc2cccc(C(F)(F)F)c2)c2ccccc12 | > 119000 nM (inactive)
O=C(Cn1cc(C(=O)C(=O)NCc2ccccc2)c2ccccc21)Nc1cc(Oc2ccccc2)cc(C(F)(F)F)c1 | inactive
CCN(CC)C(=O)C(=O)c1cn(CC(=O)Nc2cccc(C(F)(F)F)c2)c2ccccc12 | 128 nM
